Test results as given in the NIST ThermoML archive (doi:10.1021/acs.jced.8b00201).

Assay: xn = mol fraction of the nth substance listed
Details: 100 kPa, Liquid; for viscosity: Concentric cylinders viscometry; for mass density: Vibrating tube method

O=C1CCCCC1 [cyclohexanone] + CCCCCO
Details | mass density [kg/m3] | viscosity [mPa·s]
293.15 K, x1 = 0.0803 | 825.1 | 3.57
293.15 K, x1 = 0.1609 | 835.7 | 3.16
293.15 K, x1 = 0.2403 | 846.2 | 2.8
293.15 K, x1 = 0.3473 | 860.4 | 2.41
293.15 K, x1 = 0.4404 | 872.7 | 2.17
293.15 K, x1 = 0.5619 | 889 | 1.96
293.15 K, x1 = 0.6501 | 900.9 | 1.88
293.15 K, x1 = 0.747 | 914 | 1.87
293.15 K, x1 = 0.8494 | 928 | 1.98
293.15 K, x1 = 0.9404 | 940.5 | 2.12
293.15 K, x1 = 1 | 948.8 | 2.3
298.15 K, x1 = 0.0803 | 821.1 | 3.1
298.15 K, x1 = 0.1609 | 831.6 | 2.77
298.15 K, x1 = 0.2403 | 841.9 | 2.49
298.15 K, x1 = 0.3473 | 855.8 | 2.15
298.15 K, x1 = 0.4404 | 868 | 1.96
298.15 K, x1 = 0.5619 | 884.1 | 1.8
298.15 K, x1 = 0.6501 | 895.8 | 1.74
298.15 K, x1 = 0.747 | 908.8 | 1.74
298.15 K, x1 = 0.8494 | 922.6 | 1.83
298.15 K, x1 = 0.9404 | 934.9 | 1.97
298.15 K, x1 = 1 | 943.1 | 2.09
303.15 K, x1 = 0.0803 | 817.3 | 2.71
303.15 K, x1 = 0.1609 | 827.6 | 2.44
303.15 K, x1 = 0.2403 | 837.8 | 2.2
303.15 K, x1 = 0.3473 | 851.6 | 1.94
303.15 K, x1 = 0.4404 | 863.7 | 1.77
303.15 K, x1 = 0.5619 | 879.6 | 1.63
303.15 K, x1 = 0.6501 | 891.2 | 1.58
303.15 K, x1 = 0.747 | 904.1 | 1.58
303.15 K, x1 = 0.8494 | 917.8 | 1.67
303.15 K, x1 = 0.9404 | 930.1 | 1.78
303.15 K, x1 = 1 | 938.2 | 1.91
308.15 K, x1 = 0.0803 | 813.4 | 2.38
308.15 K, x1 = 0.1609 | 823.6 | 2.14
308.15 K, x1 = 0.2403 | 833.7 | 1.95
308.15 K, x1 = 0.3473 | 847.4 | 1.73
308.15 K, x1 = 0.4404 | 859.5 | 1.6
308.15 K, x1 = 0.5619 | 875.3 | 1.49
308.15 K, x1 = 0.6501 | 886.8 | 1.46
308.15 K, x1 = 0.747 | 899.6 | 1.46
308.15 K, x1 = 0.8494 | 913.2 | 1.54
308.15 K, x1 = 0.9404 | 925.5 | 1.64
308.15 K, x1 = 1 | 933.5 | 1.75
313.15 K, x1 = 0.0803 | 809.6 | 2.08
313.15 K, x1 = 0.1609 | 819.7 | 1.9
313.15 K, x1 = 0.2403 | 829.8 | 1.73
313.15 K, x1 = 0.3473 | 843.4 | 1.54
313.15 K, x1 = 0.4404 | 855.3 | 1.43
313.15 K, x1 = 0.5619 | 871 | 1.34
313.15 K, x1 = 0.6501 | 882.4 | 1.32
313.15 K, x1 = 0.747 | 895.1 | 1.33
313.15 K, x1 = 0.8494 | 908.7 | 1.4
313.15 K, x1 = 0.9404 | 920.8 | 1.5
313.15 K, x1 = 1 | 928.8 | 1.6
318.15 K, x1 = 0.0803 | 805.7 | 1.84
318.15 K, x1 = 0.1609 | 815.7 | 1.68
318.15 K, x1 = 0.2403 | 825.6 | 1.53
318.15 K, x1 = 0.3473 | 839.1 | 1.38
318.15 K, x1 = 0.4404 | 851 | 1.29
318.15 K, x1 = 0.5619 | 866.6 | 1.21
318.15 K, x1 = 0.6501 | 878.1 | 1.19
318.15 K, x1 = 0.747 | 890.7 | 1.21
318.15 K, x1 = 0.8494 | 904.3 | 1.28
318.15 K, x1 = 0.9404 | 916.4 | 1.37
318.15 K, x1 = 1 | 924.4 | 1.46
323.15 K, x1 = 0.0803 | 801.9 | 1.65
323.15 K, x1 = 0.1609 | 811.9 | 1.52
323.15 K, x1 = 0.2403 | 821.8 | 1.4
323.15 K, x1 = 0.3473 | 835.3 | 1.27
323.15 K, x1 = 0.4404 | 847.1 | 1.19
323.15 K, x1 = 0.5619 | 862.8 | 1.21
323.15 K, x1 = 0.6501 | 874.2 | 1.107
323.15 K, x1 = 0.747 | 886.9 | 1.13
323.15 K, x1 = 0.8494 | 900.5 | 1.19
323.15 K, x1 = 0.9404 | 912.7 | 1.27
323.15 K, x1 = 1 | 920.7 | 1.34

CCCCCCCO [heptan-1-ol] + O=C1CCCCC1
Details | mass density [kg/m3] | viscosity [mPa·s]
293.15 K, x2 = 0 | 822.2 | 7.03
293.15 K, x2 = 0.0809 | 829.7 | 6.06
293.15 K, x2 = 0.1601 | 837.3 | 5.23
293.15 K, x2 = 0.2406 | 845.4 | 4.49
293.15 K, x2 = 0.3511 | 857.4 | 3.68
293.15 K, x2 = 0.4227 | 865.6 | 3.27
293.15 K, x2 = 0.5754 | 884.4 | 2.71
293.15 K, x2 = 0.6492 | 894.2 | 2.59
293.15 K, x2 = 0.7422 | 907.3 | 2.46
293.15 K, x2 = 0.8513 | 923.9 | 2.38
293.15 K, x2 = 0.9385 | 938.2 | 2.35
298.15 K, x2 = 0 | 818.7 | 5.92
298.15 K, x2 = 0.0809 | 826 | 5.15
298.15 K, x2 = 0.1601 | 833.5 | 4.46
298.15 K, x2 = 0.2406 | 841.4 | 3.89
298.15 K, x2 = 0.3511 | 853.1 | 3.22
298.15 K, x2 = 0.4227 | 861.2 | 2.83
298.15 K, x2 = 0.5754 | 879.6 | 2.39
298.15 K, x2 = 0.6492 | 889.3 | 2.29
298.15 K, x2 = 0.7422 | 902.2 | 2.19
298.15 K, x2 = 0.8513 | 918.5 | 2.12
298.15 K, x2 = 0.9385 | 932.6 | 2.09
303.15 K, x2 = 0 | 815.2 | 5.03
303.15 K, x2 = 0.0809 | 822.3 | 4.41
303.15 K, x2 = 0.1601 | 829.7 | 3.86
303.15 K, x2 = 0.2406 | 837.5 | 3.37
303.15 K, x2 = 0.3511 | 849 | 2.82
303.15 K, x2 = 0.4227 | 857 | 2.51
303.15 K, x2 = 0.5754 | 875.2 | 2.11
303.15 K, x2 = 0.6492 | 884.8 | 2.04
303.15 K, x2 = 0.7422 | 897.6 | 1.97
303.15 K, x2 = 0.8513 | 913.8 | 1.94
303.15 K, x2 = 0.9385 | 927.7 | 1.93
308.15 K, x2 = 0 | 811.6 | 4.3
308.15 K, x2 = 0.0809 | 818.7 | 3.78
308.15 K, x2 = 0.1601 | 825.9 | 3.32
308.15 K, x2 = 0.2406 | 833.6 | 2.93
308.15 K, x2 = 0.3511 | 845 | 2.49
308.15 K, x2 = 0.4227 | 852.8 | 2.26
308.15 K, x2 = 0.5754 | 870.9 | 1.93
308.15 K, x2 = 0.6492 | 880.4 | 1.85
308.15 K, x2 = 0.7422 | 893.1 | 1.78
308.15 K, x2 = 0.8513 | 909.2 | 1.75
308.15 K, x2 = 0.9385 | 923.1 | 1.76
313.15 K, x2 = 0 | 808 | 3.71
313.15 K, x2 = 0.0809 | 814.9 | 3.24
313.15 K, x2 = 0.1601 | 822.1 | 2.86
313.15 K, x2 = 0.2406 | 829.7 | 2.54
313.15 K, x2 = 0.3511 | 840.9 | 2.19
313.15 K, x2 = 0.4227 | 848.7 | 2.03
313.15 K, x2 = 0.5754 | 866.6 | 1.77
313.15 K, x2 = 0.6492 | 876 | 1.72
313.15 K, x2 = 0.7422 | 888.6 | 1.65
313.15 K, x2 = 0.8513 | 904.5 | 1.62
313.15 K, x2 = 0.9385 | 918.4 | 1.6
318.15 K, x2 = 0 | 804.4 | 3.21
318.15 K, x2 = 0.0809 | 811.2 | 2.83
318.15 K, x2 = 0.1601 | 818.3 | 2.5
318.15 K, x2 = 0.2406 | 825.8 | 2.23
318.15 K, x2 = 0.3511 | 836.9 | 1.95
318.15 K, x2 = 0.4227 | 844.6 | 1.82
318.15 K, x2 = 0.5754 | 862.3 | 1.61
318.15 K, x2 = 0.6492 | 871.7 | 1.57
318.15 K, x2 = 0.7422 | 884.2 | 1.51
318.15 K, x2 = 0.8513 | 900.2 | 1.49
318.15 K, x2 = 0.9385 | 914.1 | 1.47
323.15 K, x2 = 0 | 800.7 | 2.79
323.15 K, x2 = 0.0809 | 807.5 | 2.49
323.15 K, x2 = 0.1601 | 814.5 | 2.23
323.15 K, x2 = 0.2406 | 821.9 | 2.01
323.15 K, x2 = 0.3511 | 833 | 1.77
323.15 K, x2 = 0.4227 | 840.7 | 1.64
323.15 K, x2 = 0.5754 | 858.4 | 1.45
323.15 K, x2 = 0.6492 | 867.7 | 1.4
323.15 K, x2 = 0.7422 | 880.3 | 1.35
323.15 K, x2 = 0.8513 | 896.4 | 1.33
323.15 K, x2 = 0.9385 | 910.2 | 1.33
